This data set in a line: solubility in DMAC. Conditions: in DMAC (dimethylacetamide).

SMILES strings stand for the structures.

Take `O=c1[nH]c(=O)c2ccccc2o1` [carsalam, 2H-1,3-benzoxazine-2,4(3H)-dione]: the solubility result was “about 30%”.

The values are drawn from patent publication US6900344B2, “Method of preparing alkylated salicylamides via a dicarboxylate intermediate” (Emisphere Technologies, Inc., priority 2000, dated 2005).
